Laboratory results published in PubChem BioAssay (NCI).
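Exposure lasted 48 hours, with cells grown in 96-well plates and compounds tested at five concentrations. GI50 = concentration required for 50% inhibition of growth. TGI marks complete inhibition of growth.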

What was measured:
Test in all cases: NCI tumour cell line growth inhibition, 48 h
UACC-62 melanoma = system: UACC-62 melanoma
CCRF-CEM leukemia = system: CCRF-CEM leukemia
HCT-116 colon = system: HCT-116 colon
NCI-H460 lung = system: NCI-H460 lung
M14 melanoma = system: M14 melanoma
EKVX NSCLC = system: EKVX NSCLC
DU-145 prostate = system: DU-145 prostate
CAKI-1 renal = system: CAKI-1 renal
ACHN renal = system: ACHN renal
NCI-H522 lung = system: NCI-H522 lung

SMILES | GI50 (UACC-62 melanoma) [µM] | TGI (UACC-62 melanoma) [µM] | GI50 (CCRF-CEM leukemia) [µM] | TGI (CCRF-CEM leukemia) [µM] | GI50 (HCT-116 colon) [µM] | TGI (HCT-116 colon) [µM] | GI50 (NCI-H460 lung) [µM] | TGI (NCI-H460 lung) [µM] | GI50 (M14 melanoma) [µM] | TGI (M14 melanoma) [µM] | GI50 (EKVX NSCLC) [µM] | TGI (EKVX NSCLC) [µM] | GI50 (DU-145 prostate) [µM] | TGI (DU-145 prostate) [µM] | GI50 (CAKI-1 renal) [µM] | TGI (CAKI-1 renal) [µM] | GI50 (ACHN renal) [µM] | TGI (ACHN renal) [µM] | GI50 (NCI-H522 lung) [µM] | TGI (NCI-H522 lung) [µM]
COc1ccc(NC(=O)c2ccc(C(F)(F)F)nc2Nc2ccc(Cl)cc2C)cc1Cl | 3.35 | 14.3 | 3.84 | 17.4 | 3.08 | 13.1 | 2.9 | 12.1 | 7.14 | 22.3 | 3.47 | 16.5 | 3.75 | 14.2 | 4.41 | 18.9 | 5.36 | 18.6 | 3.53 | 15.4
NC(=O)c1ccc(I)c([N+](=O)[O-])c1 | 56.1 | > 100 | > 63.7 | > 100 | > 100 | > 100 | > 100 | > 100 | > 86 | > 100 | 27.1 | > 65 | > 95.3 | > 100 | 32.2 | > 57.4 | > 69.3 | > 100 | 6.06 | 14.6
COc1ccc2c(c1)C(=O)/C(=C/c1ccc(O)cc1)O2 | 14.7 | 30.5 | 1.63 | 3.54 | 4.42 | 18.2 | 20.3 | 50.3 | 15.3 | 34 | 18.6 | > 53.5 | 9.45 | 21.9 | 1.88 | 5.66 | 4 | 10.9 | 1.86 | 3.75
C=C[C@@H]1CCC/C=C/[C@@H]2C[C@H](O)C[C@H]2[C@H](O)/C=C/C(=O)O1 | 0.545 | > 100 | 2.42 | > 100 | 0.866 | 2.49 | 3.76 | > 100 | 0.387 | > 28.9 | 0.543 | > 100 | 3.82 | > 100 | 1.89 | > 50.3 | 1.03 | > 100 | 1.52 | 4.24
O=C1CC=C2C3CC4N(CCC45c4ccccc4N1C25)C/C3=C\CO (centres undefined) |  | > 100 |  | > 100 |  | > 100 |  | > 100 |  |  |  | > 100 |  | > 100 |  | > 100 |  | > 100 |  | > 100
N#Cc1c(N)c(C(=O)c2ccc3c(c2)OCCO3)n2c1CCCC2 | 5.99 | > 100 | 3.15 | > 100 | 3.55 | > 100 | 3.19 | > 100 | 2.08 | > 100 |  |  | 4.45 | > 100 | 3.18 | > 100 | 7.42 | > 100 | 0.58 | 
Cc1cc(C)c([I+]c2c(C)cc(C)cc2C)c(C)c1 | 0.339 | 1.5 | 0.365 | 2.24 | 0.348 | 1.35 | 0.846 | 2.3 | 0.44 | 1.69 |  |  | 0.622 | 2.02 | 1.43 | 4.15 | 1.17 | 2.47 | 0.351 | 1.45
